The text below walks through data of a melting point compilation (Tetko et al.; mined from patent text by program, amines drawn as free bases though some values may be those of a salt).

Consider `Cc1ccccc1C(=O)Nc1ccc(C(=O)N2CCCC(NC(=O)Nc3ccccc3)c3ccccc32)cc1` (configuration not stated), for which the melting point lay in the range of 269 to 271 °C.

`O=[N+]([O-])c1cc(O)ccc1/C=C/c1ccc(O)cc1` returned a melting point of 237 to 240 °C. The compound `CC(=O)Oc1cc(OC(C)=O)c2c(c1)OC(c1ccc(OC(C)=O)c(OC(C)=O)c1)CC2` (configuration not stated) gave a melting point of 143 to 144 °C. `COc1ccc2c(c1OC)C(=O)C(O)=C(C)C2=O` returned a melting point of 218 °C. `CN1CCN(c2cccc3ccc(NC(=O)C(F)(F)F)cc23)CC1`: the melting point fell in the range of 159 to 160 °C. Under `N#CCCn1cnc([N+](=O)[O-])c1` stands 112 to 113 °C; under `Cc1c(CC2CCc3cc4ccccc4n3C2=O)ncn1Cc1ccccc1` (configuration not stated), 130 to 140 °C; under `CCOC(=O)CC(=Cn1cc[nH]c1=O)c1ccc(OC)c(OC2CCCC2)c1`, 164 °C. For the compound `CON1CCC(C#N)(OC(=O)Cc2c(C)cc(C)cc2C)CC1`, the melting point fell in the range of 75 to 78 °C. Under `CC(=NO)c1ccc(N2CCN(C(=O)CCCCCCC(=O)NO)CC2)cc1` stands 147 to 148 °C.

`O=c1[nH]c(=O)n(CCCCN2CC=C(c3ccc(Cl)cc3)CC2)c2ccccc12` displayed a melting point of 162 to 166 °C. Under `Cc1cccc(C)c1NC(=O)NCCCc1cc(-c2ccccc2)n(-c2ccc(S(N)(=O)=O)cc2)n1` stands 138 to 141 °C; under `CCc1c2c(nn1C)c(N)nc1ccccc12`, 257 to 259 °C. `CC(C)(C)C1=CC(=C(C#N)C#N)C=C(c2cccs2)S1(=O)=O` had a melting point of 164 to 165 °C. Under `Nc1ccc(OCc2ccccc2)c(Cl)c1` stands 54 °C. `CC(C)(C)OC(=O)NCCCC(=O)NCc1cccc2c1CN(C1CCC(=O)NC1=O)C2=O` (configuration not stated) registered a melting point of 199 to 201 °C. Turning to `CC1CN(c2n[nH]c(-c3ccc(Cl)cc3)c2-c2ccncn2)CCN1C` (configuration not stated), the melting point was in the range of 212 to 214 °C. For `COc1c(C)c(C(=O)c2ccc3nc(C)[nH]c(=O)c3c2)n2ccccc12`, the melting point came to 290 °C. Consider `CCOC(=O)COc1cc(O)ccc1C(=O)c1ccc(OCc2nc(-c3ccccc3)oc2C)cc1`, for which the melting point fell in the range of 184 to 186 °C. Turning to `O=c1[nH]c2ccc([N+](=O)[O-])cc2s1`, the melting point turned out to be 252 °C.

Compound `CCC(=O)OC1(C(=O)CO)CCC2C3CC(C)C4=CC(=O)CCC4(C)C3C(O)CC21C` (configuration not stated) came in with a melting point of 197 °C. With `CC(=O)Oc1ccc2c(ccc3ccccc32)c1`, the melting point fell in the range of 141 to 142 °C. Under `Cc1sc(CCc2ccc(CCCC3OC(=O)NC3=O)cc2)nc1-c1ccccc1` (configuration not stated) stands 111 to 112 °C.

With `CCOC(=O)c1ccccc1N(CC(=O)OC(C)(C)C)C(=O)CNC(=O)Nc1cccc(C)c1`, the melting point stood at 142 °C.

For the compound `Nc1c(Br)cc(N=C2NCCN2)cc1Br`, the melting point lay in the range of 152 to 153 °C. Regarding `CCS(=O)(=O)CCn1c(=N)sc2cc(C(F)(F)C(F)(F)F)ccc21`, the melting point was 125 °C. In turn, `Cc1cc(C)c2nc(C3CC3)n(Cc3ccc(C4(C(=O)O)CCCCC4)s3)c2n1` displayed a melting point of 175 to 176 °C. Consider `O=c1c(O)c(-c2ccc(OCc3ccccc3)c(OCc3ccccc3)c2)oc2cc(OCc3ccccc3)ccc12`, for which the melting point lay in the range of 120 to 121 °C. Regarding `CCCCCCCCCCC(NC(=O)NC12CC3CC(CC(C3)C1)C2)C(=O)OC` (configuration not stated), the melting point was 75 °C.

As to `Cn1c(=O)n(Cc2ccccc2)c(=O)c2cc(C(=O)CCc3ccccc3)ccc21`, the melting point is 155 °C. Under `O=C1NC(=O)c2c1cc1ccc3c(c1c2-c1cccnc1)OCO3` stands 323 to 325 °C; under `CCCCCCC(=N)NC(=S)Nc1ccc(Cl)c(Cl)c1`, 89 to 90 °C; under `CCOC(=O)C1CCCN(S(=O)(=O)c2ccc3[nH]c(=O)c4cccc5c4c3c2C5)C1` (configuration not stated), 215 to 218 °C. Under `Cc1nc2c(O)cc(C(=O)N(C)C)cc2n1C` stands 248 °C. Under `CC(Cc1ccc(OCCCCO)cc1)NCC(O)c1cccc(C(F)(F)F)c1` (configuration not stated) stands 69 to 76 °C; under `NC1=C(c2cccc(C(F)(F)F)c2)C(=O)OC1`, 165 °C; under `CCOc1ccc2ccc(NC(=O)c3ccc(OC)cc3)nc2n1`, 152 °C.

Turning to `CC(C)Cn1c(N(C)C(=O)OC(C)(C)C)c(OCCCC(F)(F)F)c2cc(OCc3ccccc3)ccc2c1=O`, the melting point lay within 117 to 118 °C. Under `CCCC(CCC)(CC(=O)O)CC(=O)O` stands 107 °C. Under `O=[N+]([O-])c1ccc(-c2ccc([N+](=O)[O-])c(Cl)c2)cc1Cl` stands 221 to 222 °C; under `COc1ccc(OC2COc3ccc(OCc4ccccc4)cc3C2=O)cc1` (configuration not stated), 98 to 100 °C; under `CCCCCOc1ccc(-c2ccc(-c3ccc(C(=O)OC)cc3)cc2)cc1`, 248 °C.

`O=C(Nc1cnc2sc(CO)nc2c1)c1cc2cc(C(F)(F)F)ccc2n1Cc1nccs1`: the melting point was in the range of 282 to 283 °C. Under `O=C1NCCN1c1cn(-c2cccnc2)nc1Cl` stands 167 to 170 °C. Under `O=C1c2cc(OCc3ccc4ccccc4n3)ccc2CCC1Cc1ccccc1` (configuration not stated) stands 117 to 118 °C. Under `O=C(Cc1c[nH]c2ccccc12)Nc1ccccc1C(=O)Nc1ccccc1` stands 235 to 236 °C.

The compound `CN1CCC(O)(c2cc3ccccc3s2)CC1` had a melting point of 161 to 163 °C. Under `O=C(CN1CCN2c3ccccc3Cn3cccc3C2C1)c1ccc(Cl)cc1` (configuration not stated) stands 71 to 74 °C. As for `CC(C)(CNCCCCCCNCC(C)(C)[N+](=O)[O-])[N+](=O)[O-]`, the melting point is 26 to 27 °C.

With `NC(=O)c1c(Cl)c(-c2ccccc2)n2c1CN(S(=O)(=O)c1ccccc1)CC2`, the melting point was in the range of 250 to 252 °C. Under `CC(C)c1ccc(-c2nc(-c3cccc(C(=O)O)c3)co2)cc1` stands 187 to 189 °C. Under `CC(CCC(F)(F)C(C)(C)O)C1CCC2C3CC=C4CC(O)CC(O)C4(C)C3CCC12C` (configuration not stated) stands 177 to 179 °C; under `CC(=O)NCc1c(C)cc(CCl)cc1C`, 193 to 194 °C. Turning to `COC(=O)c1ccc2occ(-c3cccc(OC(F)(F)F)c3)c2c1`, the melting point lay within 93 to 94 °C. Under `CCOc1ccc(OC)cc1` stands 30 to 31 °C; under `CC1CC2C3CCC4=CC(=O)C=CC4(C)C3=CCC2(C)C1C(=O)COS(=O)(=O)c1ccc([N+](=O)[O-])cc1` (configuration not stated), 151 to 160 °C; under `CNC(=O)c1cccc(NC(=O)Cc2c(O)ccc3ccccc23)c1`, 229 to 230 °C.

As to `COC(=O)c1sc(Nc2ccc(Cl)cc2)nc1C`, the melting point was in the range of 172 to 173 °C. Under `CCOC(=O)COc1ccc(C(=O)CN2CCN(c3ccncc3)CC2)cc1` stands 41 to 42 °C; under `CN(C)C1CCn2c1nc1cc(NC(=O)c3cc4cc(C(F)(F)F)ccc4n3Cc3cccc(F)c3)cnc12` (single isomer, unassigned; (-)), 203 to 205 °C; under `COc1ccc(O)c(CN2CCN(C(=S)SC)CC2)c1`, 112 °C. Compound `COc1ccc(C(O)(c2ccc3c(c2)c(-c2cccc(Cl)c2)nc2nnnn23)c2cncn2C)cc1` (configuration not stated) had a melting point of 200 °C. Under `CCCCc1nc2cc3ccccc3cc2[nH]1` stands 190 °C. Under `c1nc(-c2ccc(CN3CCCCCC3)s2)n[nH]1` stands 129 to 130 °C. In turn, `Nc1cnc(-c2cc(Cl)ccc2Cl)c(N)n1` showed a melting point of 159 to 160 °C. `COc1ccc2c(-c3ccc(OC(C)=O)cc3)c(-c3ccc(C(F)(F)F)cc3)c(=O)oc2c1` gave a melting point of 198 to 201 °C. As for `Cc1c(C(F)(F)F)nn(C)c1O`, the melting point lay within 148 to 151 °C. Under `CC(=O)c1ccc(-c2ccc3c(ccn3Cc3ccccc3)c2)cc1` stands 134 to 135 °C; under `CCCOC(=O)c1ccc2c(c1)S[C@@H](c1ccc(OC)cc1)[C@@H](OC(C)=O)C(=O)N2CCN(C)C` (racemic), 114 to 119 °C. In turn, `CC(=NO)C(=O)c1ccccc1OCc1ccccc1` registered a melting point of 78 to 80 °C.

For `ONCC1CCCCC1`, the melting point is 61 to 63 °C. Under `CCCCCCCCCCCCCCCCCC(=O)OCCOc1ccc(C2C(=O)Oc3c2cc(C(C)(C)C)cc3C(C)(C)C)cc1` (configuration not stated) stands 54 to 60 °C; under `CC(C)c1cc(/C=C/C(=O)O)n(Cc2ccc(Cl)cc2Cl)n1`, 174 to 175 °C. Under `CCOC(=O)CC(O)c1ccc(-c2ccc([N+](=O)[O-])cc2)o1` (configuration not stated) stands 79 to 81 °C; under `O=C(COC(=O)C(O)Cc1ccccc1)Oc1ccccc1` (configuration not stated), 98 to 99 °C.

The compound `CS(=O)(=O)c1ccc(-c2cnn(CC(F)(F)F)c(=O)c2NC2CCCO2)cc1` (configuration not stated) yielded a melting point of 128 to 129 °C. Under `O=C(O)C(=O)c1ccc(OCCCc2ccc3ccccc3c2)cc1` stands 123 to 124 °C. Under `CCCCCCOc1c(OC)cc(N)c2nccc(C)c12` stands 69 to 71 °C; under `CC(C)(C)c1cc2c(c(C(C)(C)C)c1)OC(C(F)(F)F)C(C(=O)O)=C2` (configuration not stated), 172 to 175 °C. `CN(C)C(=O)c1ccccc1Sc1ccc(Br)cc1[N+](=O)[O-]` had a melting point of 112 to 114 °C. Under `COC(=O)c1ccc(CC(=O)c2cc(OC)c3c(c2)C(C)(C)CCC3(C)C)cc1` stands 143 to 144 °C. Under `CCCCOCCOc1ccc(-c2ccc3c(c2)C=C(C(=O)Nc2ccc(C(O)c4ccccn4)c(OC)c2)CCN3C(=O)C(F)(F)F)cc1` (configuration not stated) stands 123 to 125 °C; under `O=C(O)c1cc(-c2ccc(OCc3ccccc3)cc2)nn1Cc1ccccc1`, 207 to 208 °C. Under `CC(C)(n1cncn1)C(O)(Cn1cncn1)c1ccc(F)cc1` (configuration not stated) stands 156 to 158 °C; under `CC(C)(S)C(=O)N[C@@H](CS)C(=O)O`, 139 to 140 °C; under `Cc1csc2nc(CO)cn12`, 156 to 157 °C. As to `COc1ccc2c(c1)C(=O)N(c1ccc3c(cnn3C)c1)C2`, the melting point lay within 213 to 214 °C.
